According to PubChem BioAssay (NCI):
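The concentration for 50% growth inhibition is given as GI50. At the TGI there is no net growth.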

Key:
Experiment in all cases: NCI tumour cell line growth inhibition, 384-well format
786-0 renal = tested on: 786-0 renal
A498 renal = tested on: A498 renal
A549 NSCLC = tested on: A549 NSCLC
ACHN renal = tested on: ACHN renal
BT-549 breast = tested on: BT-549 breast
CAKI-1 renal = tested on: CAKI-1 renal
CCRF-CEM leukemia = tested on: CCRF-CEM leukemia
COLO 205 colon = tested on: COLO 205 colon
DU-145 prostate = tested on: DU-145 prostate
EKVX NSCLC = tested on: EKVX NSCLC
HCC-2998 colon = tested on: HCC-2998 colon
HCT-116 colon = tested on: HCT-116 colon
HCT-15 colon = tested on: HCT-15 colon
HL-60(TB) leukemia = tested on: HL-60(TB) leukemia
HOP-62 NSCLC = tested on: HOP-62 NSCLC
HOP-92 NSCLC = tested on: HOP-92 NSCLC
HS 578T breast = tested on: HS 578T breast
HT29 colon = tested on: HT29 colon
IGROV1 ovarian = tested on: IGROV1 ovarian
K-562 leukemia = tested on: K-562 leukemia
KM12 colon = tested on: KM12 colon
LOX IMVI melanoma = tested on: LOX IMVI melanoma
M14 melanoma = tested on: M14 melanoma
MALME-3M melanoma = tested on: MALME-3M melanoma
MCF7 breast = tested on: MCF7 breast
MDA-MB-231 breast = tested on: MDA-MB-231 breast
MDA-MB-435 melanoma = tested on: MDA-MB-435 melanoma
MDA-MB-468 breast = tested on: MDA-MB-468 breast
MOLT-4 leukemia = tested on: MOLT-4 leukemia
NCI-H226 lung = tested on: NCI-H226 lung
NCI-H23 lung = tested on: NCI-H23 lung
NCI-H322M lung = tested on: NCI-H322M lung
NCI-H460 NSCLC = tested on: NCI-H460 NSCLC
NCI-H522 lung = tested on: NCI-H522 lung
NCI/ADR-RES ovarian = tested on: NCI/ADR-RES ovarian
OVCAR-3 ovarian = tested on: OVCAR-3 ovarian
OVCAR-4 ovarian = tested on: OVCAR-4 ovarian
OVCAR-5 ovarian = tested on: OVCAR-5 ovarian
OVCAR-8 ovarian = tested on: OVCAR-8 ovarian
PC-3 prostate = tested on: PC-3 prostate
RPMI-8226 leukemia = tested on: RPMI-8226 leukemia
RXF 393 renal = tested on: RXF 393 renal
SF-268 CNS = tested on: SF-268 CNS
SF-295 CNS = tested on: SF-295 CNS
SF-539 CNS = tested on: SF-539 CNS
SK-MEL-2 melanoma = tested on: SK-MEL-2 melanoma
SK-MEL-28 melanoma = tested on: SK-MEL-28 melanoma
SK-MEL-5 melanoma = tested on: SK-MEL-5 melanoma
SK-OV-3 ovarian = tested on: SK-OV-3 ovarian
SN12C renal = tested on: SN12C renal
SNB-19 CNS = tested on: SNB-19 CNS
SNB-75 CNS = tested on: SNB-75 CNS
SR leukemia = tested on: SR leukemia
SW-620 colon = tested on: SW-620 colon
T-47D breast = tested on: T-47D breast
TK-10 renal = tested on: TK-10 renal
U251 glioblastoma = tested on: U251 glioblastoma
UACC-257 melanoma = tested on: UACC-257 melanoma
UACC-62 melanoma = tested on: UACC-62 melanoma
UO-31 renal = tested on: UO-31 renal

CC[C@H](Nc1ncnc2nc[nH]c12)c1oc2ccccc2c(=O)c1-c1cccc(F)c1
GI50 ([…]-0 renal): 27.2 µM | TGI (786-0 renal): > 95 µM | GI50 (A498 renal): 27.8 µM | TGI (A498 renal): > 100 µM | GI50 (A549 NSCLC): 27.9 µM | TGI (A549 NSCLC): > 100 µM | GI50 (ACHN renal): 23.2 µM | TGI (ACHN renal): 77.5 µM | GI50 (BT-549 breast): 15.5 µM | TGI (BT-549 breast): 39.5 µM | GI50 (CAKI-1 renal): 28.6 µM | TGI (CAKI-1 renal): > 100 µM | GI50 (CCRF-CEM leukemia): 16.8 µM | TGI (CCRF-CEM leukemia): 31 µM | GI50 (COLO 205 colon): 42.4 µM | TGI (COLO 205 colon): > 100 µM | GI50 (DU-145 prostate): 29.6 µM | TGI (DU-145 prostate): > 100 µM | GI50 (EKVX NSCLC): 23.8 µM | TGI (EKVX NSCLC): 70.7 µM | GI50 (HCC-2998 colon): 32.6 µM | TGI (HCC-2998 colon): 80 µM | GI50 (HCT-116 colon): 36.9 µM | TGI (HCT-116 colon): > 100 µM | GI50 (HCT-15 colon): 30.7 µM | TGI (HCT-15 colon): 99.1 µM | GI50 (HL-60(TB) leukemia): 21.8 µM | TGI (HL-60(TB) leukemia): 36.6 µM | GI50 (HOP-62 NSCLC): 30.1 µM | TGI (HOP-62 NSCLC): > 100 µM | GI50 (HOP-92 NSCLC): 14.6 µM | TGI (HOP-92 NSCLC): 39.1 µM | GI50 (HS 578T breast): 15.1 µM | TGI (HS 578T breast): 37.2 µM | GI50 (HT29 colon): 32.3 µM | TGI (HT29 colon): > 100 µM | GI50 (IGROV1 ovarian): 24.1 µM | TGI (IGROV1 ovarian): 59.2 µM | GI50 (K-562 leukemia): 26.5 µM | TGI (K-562 leukemia): > 96.6 µM | GI50 (KM12 colon): 36.8 µM | TGI (KM12 colon): > 100 µM | GI50 (LOX IMVI melanoma): 26.3 µM | TGI (LOX IMVI melanoma): 82.1 µM | GI50 (M14 melanoma): 37.7 µM | TGI (M14 melanoma): > 100 µM | GI50 (MALME-3M melanoma): 23.6 µM | TGI (MALME-3M melanoma): 62.8 µM | GI50 (MCF7 breast): 29.6 µM | TGI (MCF7 breast): > 87.3 µM | GI50 (MDA-MB-231 breast): 26.2 µM | TGI (MDA-MB-231 breast): > 100 µM | GI50 (MDA-MB-435 melanoma): 24.2 µM | TGI (MDA-MB-435 melanoma): 56.5 µM | GI50 (MDA-MB-468 breast): 9.6 µM | TGI (MDA-MB-468 breast): 27.2 µM | GI50 (MOLT-4 leukemia): 15.8 µM | TGI (MOLT-4 leukemia): 29.6 µM | GI50 (NCI-H226 lung): 23.8 µM | TGI (NCI-H226 lung): 83 µM | GI50 (NCI-H23 lung): 23.9 µM | TGI (NCI-H23 lung): 78.3 µM | GI50 (NCI-H322M lung): 90.5 µM | TGI (NCI-H322M lung): > 100 µM | GI50 (NCI-H460 NSCLC): 34.7 µM | TGI (NCI-H460 NSCLC): > 100 µM | GI50 (NCI-H522 lung): 20.6 µM | TGI (NCI-H522 lung): 47.7 µM | GI50 (NCI/ADR-RES ovarian): 24 µM | TGI (NCI/ADR-RES ovarian): 60.4 µM | GI50 (OVCAR-3 ovarian): 18.2 µM | TGI (OVCAR-3 ovarian): 40.8 µM | GI50 (OVCAR-4 ovarian): 17.9 µM | TGI (OVCAR-4 ovarian): 54.2 µM | GI50 (OVCAR-5 ovarian): 39.9 µM | TGI (OVCAR-5 ovarian): > 100 µM | GI50 (OVCAR-8 ovarian): 32.6 µM | TGI (OVCAR-8 ovarian): > 100 µM | GI50 (PC-3 prostate): 18.5 µM | TGI (PC-3 prostate): 52.6 µM | GI50 (RPMI-8226 leukemia): 8.38 µM | TGI (RPMI-8226 leukemia): 20.5 µM | GI50 (RXF 393 renal): 21.1 µM | TGI (RXF 393 renal): > 69.5 µM | GI50 (SF-268 CNS): 29.8 µM | TGI (SF-268 CNS): > 89.4 µM | GI50 (SF-295 CNS): 20.7 µM | TGI (SF-295 CNS): > 74.6 µM | GI50 (SF-539 CNS): 45.9 µM | TGI (SF-539 CNS): > 100 µM | GI50 (SK-MEL-2 melanoma): 13.7 µM | TGI (SK-MEL-2 melanoma): 30.1 µM | GI50 (SK-MEL-28 melanoma): 27.7 µM | TGI (SK-MEL-28 melanoma): > 86.1 µM | GI50 (SK-MEL-5 melanoma): 17.9 µM | TGI (SK-MEL-5 melanoma): 39.7 µM | GI50 (SK-OV-3 ovarian): 24.5 µM | TGI (SK-OV-3 ovarian): 63.8 µM | GI50 (SN12C renal): 30.5 µM | TGI (SN12C renal): 98.9 µM | GI50 (SNB-19 CNS): 37.1 µM | TGI (SNB-19 CNS): > 100 µM | GI50 (SNB-75 CNS): 23.2 µM | TGI (SNB-75 CNS): 60.7 µM | GI50 (SR leukemia): 12.4 µM | TGI (SR leukemia): 25.2 µM | GI50 (SW-620 colon): 48.7 µM | TGI (SW-620 colon): > 81.2 µM | GI50 (T-47D breast): 24.4 µM | TGI (T-47D breast): > 86.2 µM | GI50 (TK-10 renal): 29.8 µM | TGI (TK-10 renal): > 95.2 µM | GI50 (U251 glioblastoma): 31 µM | TGI (U251 glioblastoma): > 100 µM | GI50 (UACC-257 melanoma): 33 µM | TGI (UACC-257 melanoma): > 87.9 µM | GI50 (UACC-62 melanoma): 16.3 µM | TGI (UACC-62 melanoma): 36.8 µM | GI50 (UO-31 renal): 3.16 µM | TGI (UO-31 renal): > 100 µM
